How the values were obtained:
Test in all cases: relative viability (nuclei count vs DMSO), 5 days (fraction); higher = more cells survive
EPLC-272H = system: EPLC-272H
Method in brief: (§1)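 One day after seeding in 1536-well plates, lung cancer cell lines were dosed by pin tool. Dosing was either single-drug or a fixed anchor-drug dose plus five library-drug doses (not always all listed) in √10 steps. After 5 days, nuclei were stained in one fix-and-stain step and counted on 4× images, and relative viability is the nuclei count of treated wells over that of vehicle wells, given as the median of duplicate plates.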

H3255 = system: H3255
Method in brief: as §1

HARA = system: HARA
Method in brief: as §1

LC-2-ad = system: LC-2-ad
Method in brief: as §1

LOU-NH91 = system: LOU-NH91
Method in brief: as §1

NCI-H1650 = system: NCI-H1650
Method in brief: as §1

NCI-H1651 = system: NCI-H1651
Method in brief: as §1

NCI-H1975 = system: NCI-H1975
Method in brief: as §1

NCI-H2009 = system: NCI-H2009
Method in brief: as §1

NCI-H2023 = system: NCI-H2023
Method in brief: as §1

NCI-H2085 = system: NCI-H2085
Method in brief: as §1

NCI-H2087 = system: NCI-H2087
Method in brief: as §1

NCI-H2170 = system: NCI-H2170
Method in brief: as §1

NCI-H2228 = system: NCI-H2228
Method in brief: as §1

NCI-H23 = system: NCI-H23
Method in brief: as §1

NCI-H441 = system: NCI-H441
Method in brief: as §1

NCI-H650 = system: NCI-H650
Method in brief: as §1

NCI-H727 = system: NCI-H727
Method in brief: as §1

NCI-H838 = system: NCI-H838
Method in brief: as §1

PC-3 [JPC-3] = system: PC-3 [JPC-3]
Method in brief: as §1

SW 1573 = system: SW 1573
Method in brief: as §1

UMC-11 = system: UMC-11
Method in brief: as §1

Cc1csc(=NC2CCCCC2)n1/N=C/c1ccc(O)c(O)c1O [MIM1] + CS(=O)(=O)N1CCN(Cc2cc3nc(-c4cccc5[nH]ncc45)nc(N4CCOCC4)c3s2)CC1 [Pictilisib] (partner 1 µM)
relative viability (EPLC-272H; first compound 0.2 µM): 0.355 | relative viability (EPLC-272H; first compound 0.6325 µM): 0.339 | relative viability (EPLC-272H; first compound 2 µM): 0.334 | relative viability (EPLC-272H; first compound 6.325 µM): 0.3 | relative viability (EPLC-272H; first compound 20 µM): 0.235 | relative viability (H3255; first compound 0.2 µM): 0.429 | relative viability (H3255; first compound 0.6325 µM): 0.54 | relative viability (H3255; first compound 2 µM): 0.459 | relative viability (H3255; first compound 6.325 µM): 0.478 | relative viability (H3255; first compound 20 µM): 0.416 | relative viability (HARA; first compound 0.2 µM): 0.333 | relative viability (HARA; first compound 0.6325 µM): 0.328 | relative viability (HARA; first compound 2 µM): 0.476 | relative viability (HARA; first compound 6.325 µM): 0.307 | relative viability (HARA; first compound 20 µM): 0.124 | relative viability (LC-2-ad; first compound 0.2 µM): 0.437 | relative viability (LC-2-ad; first compound 0.6325 µM): 0.373 | relative viability (LC-2-ad; first compound 2 µM): 0.508 | relative viability (LC-2-ad; first compound 6.325 µM): 0.406 | relative viability (LC-2-ad; first compound 20 µM): 0.12 | relative viability (LOU-NH91; first compound 0.2 µM): 0.534 | relative viability (LOU-NH91; first compound 0.6325 µM): 0.524 | relative viability (LOU-NH91; first compound 2 µM): 0.47 | relative viability (LOU-NH91; first compound 6.325 µM): 0.506 | relative viability (LOU-NH91; first compound 20 µM): 0.382 | relative viability (NCI-H1650; first compound 0.2 µM): 0.595 | relative viability (NCI-H1650; first compound 0.6325 µM): 0.545 | relative viability (NCI-H1650; first compound 2 µM): 0.434 | relative viability (NCI-H1650; first compound 6.325 µM): 0.176 | relative viability (NCI-H1650; first compound 20 µM): 0.167 | relative viability (NCI-H1651; first compound 0.2 µM): 0.646 | relative viability (NCI-H1651; first compound 0.6325 µM): 0.646 | relative viability (NCI-H1651; first compound 2 µM): 0.75 | relative viability (NCI-H1651; first compound 6.325 µM): 0.542 | relative viability (NCI-H1651; first compound 20 µM): 0.298 | relative viability (NCI-H1975; first compound 0.2 µM): 0.275 | relative viability (NCI-H1975; first compound 0.6325 µM): 0.312 | relative viability (NCI-H1975; first compound 2 µM): 0.251 | relative viability (NCI-H1975; first compound 6.325 µM): 0.209 | relative viability (NCI-H1975; first compound 20 µM): 0.312 | relative viability (NCI-H2009; first compound 0.2 µM): 0.931 | relative viability (NCI-H2009; first compound 0.6325 µM): 0.812 | relative viability (NCI-H2009; first compound 2 µM): 0.85 | relative viability (NCI-H2009; first compound 6.325 µM): 0.582 | relative viability (NCI-H2009; first compound 20 µM): 0.173 | relative viability (NCI-H2023; first compound 0.2 µM): 0.238 | relative viability (NCI-H2023; first compound 0.6325 µM): 0.26 | relative viability (NCI-H2023; first compound 2 µM): 0.226 | relative viability (NCI-H2023; first compound 6.325 µM): 0.126 | relative viability (NCI-H2023; first compound 20 µM): 0.067 | relative viability (NCI-H2085; first compound 0.2 µM): 0.441 | relative viability (NCI-H2085; first compound 0.6325 µM): 0.431 | relative viability (NCI-H2085; first compound 2 µM): 0.518 | relative viability (NCI-H2085; first compound 6.325 µM): 0.461 | relative viability (NCI-H2085; first compound 20 µM): 0.631 | relative viability (NCI-H2087; first compound 0.2 µM): 0.959 | relative viability (NCI-H2087; first compound 0.6325 µM): 0.588 | relative viability (NCI-H2087; first compound 2 µM): 0.969 | relative viability (NCI-H2087; first compound 6.325 µM): 0.584 | relative viability (NCI-H2087; first compound 20 µM): 0.315 | relative viability (NCI-H2170; first compound 0.2 µM): 0.394 | relative viability (NCI-H2170; first compound 0.6325 µM): 0.28 | relative viability (NCI-H2170; first compound 2 µM): 0.321 | relative viability (NCI-H2170; first compound 6.325 µM): 0.272 | relative viability (NCI-H2170; first compound 20 µM): 0.238 | relative viability (NCI-H2228; first compound 0.2 µM): 0.435 | relative viability (NCI-H2228; first compound 0.6325 µM): 0.316 | relative viability (NCI-H2228; first compound 2 µM): 0.4 | relative viability (NCI-H2228; first compound 6.325 µM): 0.244 | relative viability (NCI-H2228; first compound 20 µM): 0.158 | relative viability (NCI-H23; first compound 0.2 µM): 0.563 | relative viability (NCI-H23; first compound 2 µM): 0.517 | relative viability (NCI-H23; first compound 6.325 µM): 0.467 | relative viability (NCI-H23; first compound 20 µM): 0.192 | relative viability (NCI-H441; first compound 0.2 µM): 0.541 | relative viability (NCI-H441; first compound 0.6325 µM): 0.468 | relative viability (NCI-H441; first compound 2 µM): 0.539 | relative viability (NCI-H441; first compound 6.325 µM): 0.382 | relative viability (NCI-H441; first compound 20 µM): 0.147 | relative viability (NCI-H650; first compound 0.2 µM): 0.988 | relative viability (NCI-H650; first compound 0.6325 µM): 0.944 | relative viability (NCI-H650; first compound 2 µM): 0.987 | relative viability (NCI-H650; first compound 6.325 µM): 0.975 | relative viability (NCI-H650; first compound 20 µM): 0.505 | relative viability (NCI-H727; first compound 0.2 µM): 0.415 | relative viability (NCI-H727; first compound 0.6325 µM): 0.352 | relative viability (NCI-H727; first compound 2 µM): 0.35 | relative viability (NCI-H727; first compound 6.325 µM): 0.355 | relative viability (NCI-H727; first compound 20 µM): 0.122 | relative viability (NCI-H838; first compound 0.2 µM): 0.415 | relative viability (NCI-H838; first compound 0.6325 µM): 0.468 | relative viability (NCI-H838; first compound 2 µM): 0.397 | relative viability (NCI-H838; first compound 6.325 µM): 0.357 | relative viability (NCI-H838; first compound 20 µM): 0.2 | relative viability (PC-3 [JPC-3]; first compound 0.2 µM): 0.759 | relative viability (PC-3 [JPC-3]; first compound 0.6325 µM): 0.763 | relative viability (PC-3 [JPC-3]; first compound 2 µM): 0.707 | relative viability (PC-3 [JPC-3]; first compound 6.325 µM): 0.619 | relative viability (PC-3 [JPC-3]; first compound 20 µM): 0.459 | relative viability (SW 1573; first compound 0.2 µM): 0.478 | relative viability (SW 1573; first compound 0.6325 µM): 0.508 | relative viability (SW 1573; first compound 2 µM): 0.592 | relative viability (SW 1573; first compound 6.325 µM): 0.461 | relative viability (SW 1573; first compound 20 µM): 0.35 | relative viability (UMC-11; first compound 0.2 µM): 0.753 | relative viability (UMC-11; first compound 0.6325 µM): 0.203 | relative viability (UMC-11; first compound 2 µM): 0.853 | relative viability (UMC-11; first compound 6.325 µM): 0.687 | relative viability (UMC-11; first compound 20 µM): 0.17

Source: the supplement of paper PMC10307832
